Among the data in publication doi:10.1101/2021.01.21.427670v1 (biorxiv, 2021) are EC50 values, retold here.

In general, EC50 refers to the concentration that produces a half-maximal response. Read a low EC50 as higher potency in that assay.

In test [1] the target is T1, α4β1δ GABAA receptor (Homo sapiens, UniProt P18505+P48169, P18505:I289Q). Nature of the test: cell-based. The arrangement: species or system HEK293 Flp-In.
Test [2] deals with T2, α4β1δ GABAA receptor (Homo sapiens, UniProt P18505+P48169, P48169:S303L). Nature of the test: cell-based. More on the design: species or system HEK293 Flp-In.
The target of test [3] is T3, α4β1δ GABAA receptor (Homo sapiens, UniProt P18505+P48169). The experiment in a line: cell-based. The arrangement: species or system HEK293 Flp-In.
Test [4] deals with T3, α4β1δ GABAA receptor. Nature of the test: FLIPR membrane potential. The format is cell-based.
The target of test [5] is T1, α4β1δ GABAA receptor. Nature of the test: FLIPR membrane potential. The format is cell-based.
Test [6] has as its target T2, α4β1δ GABAA receptor. Nature of the test: FLIPR membrane potential. The format is cell-based.

T1 sequence (P48169 36-554): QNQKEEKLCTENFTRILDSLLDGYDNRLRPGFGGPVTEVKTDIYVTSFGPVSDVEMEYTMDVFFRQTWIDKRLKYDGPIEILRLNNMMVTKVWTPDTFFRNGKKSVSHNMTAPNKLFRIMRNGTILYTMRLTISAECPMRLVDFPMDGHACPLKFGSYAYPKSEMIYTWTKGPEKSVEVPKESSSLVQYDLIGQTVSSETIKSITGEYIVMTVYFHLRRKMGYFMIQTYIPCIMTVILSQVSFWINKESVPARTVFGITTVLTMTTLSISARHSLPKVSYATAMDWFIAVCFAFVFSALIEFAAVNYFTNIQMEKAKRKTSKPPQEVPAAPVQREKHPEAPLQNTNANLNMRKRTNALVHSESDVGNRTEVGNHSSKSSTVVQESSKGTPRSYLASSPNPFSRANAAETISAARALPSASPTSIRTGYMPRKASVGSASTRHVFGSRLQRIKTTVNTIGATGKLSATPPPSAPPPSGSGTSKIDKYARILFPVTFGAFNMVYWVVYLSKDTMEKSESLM
T1 sequence (P18505 26-474 I289Q): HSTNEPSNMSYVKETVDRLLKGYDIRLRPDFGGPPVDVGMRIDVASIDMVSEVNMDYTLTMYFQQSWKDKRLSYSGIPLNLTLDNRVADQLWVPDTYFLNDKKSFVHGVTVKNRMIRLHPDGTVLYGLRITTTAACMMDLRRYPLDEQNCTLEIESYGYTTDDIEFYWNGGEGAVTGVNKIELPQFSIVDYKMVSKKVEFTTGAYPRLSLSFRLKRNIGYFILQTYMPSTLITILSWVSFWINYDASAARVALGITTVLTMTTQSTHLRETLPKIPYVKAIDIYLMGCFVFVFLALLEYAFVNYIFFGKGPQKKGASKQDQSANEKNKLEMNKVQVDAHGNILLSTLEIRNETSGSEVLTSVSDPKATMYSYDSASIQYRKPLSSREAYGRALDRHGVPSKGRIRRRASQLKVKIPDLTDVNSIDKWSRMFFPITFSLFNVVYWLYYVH
T1 sequence (O14764 25-452 partner): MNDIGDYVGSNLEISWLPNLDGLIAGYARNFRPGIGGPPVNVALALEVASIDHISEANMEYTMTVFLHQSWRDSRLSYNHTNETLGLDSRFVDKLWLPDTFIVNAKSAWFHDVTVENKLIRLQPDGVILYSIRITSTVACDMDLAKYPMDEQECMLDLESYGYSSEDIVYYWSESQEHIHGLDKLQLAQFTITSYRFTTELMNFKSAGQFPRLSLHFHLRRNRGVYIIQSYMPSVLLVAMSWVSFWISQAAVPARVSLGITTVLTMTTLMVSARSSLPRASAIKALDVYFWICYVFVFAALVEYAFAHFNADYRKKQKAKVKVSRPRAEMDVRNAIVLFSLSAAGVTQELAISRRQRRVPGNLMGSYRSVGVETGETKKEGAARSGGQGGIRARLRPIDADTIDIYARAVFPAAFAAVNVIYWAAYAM
T3 sequence (P48169 36-554): as the sequence (P48169 36-554) above
T3 sequence (P18505 26-474): as the sequence (P18505 26-474 I289Q) above, with Q264I counted along it
T3 sequence (O14764 25-452 partner): as the sequence (O14764 25-452 partner) above
T2 sequence (P48169 36-554 S303L): as the sequence (P48169 36-554) above, with S268L counted along it
T2 sequence (P18505 26-474): as the sequence (P18505 26-474 I289Q) above, with Q264I counted along it
T2 sequence (O14764 25-452 partner): as the sequence (O14764 25-452 partner) above

With `CCOC(=O)Nc1ccc(NCc2c(C)cc(C)cc2C)cc1N` [AA29504, [2-amino-4-(2,4,6-trimethylbenzylamino)-phenyl]-carbamic acid ethyl ester], the EC50 worked out at 0.76 µM in test [1], 0.25 µM in test [2] and 0.55 µM in test [3].

Regarding `CCOC(=O)c1cncn1[C@H](C)c1ccccc1` [etomidate, (R)-1-(1-phenylethyl)-1H-imidazole-5-carboxylic acid ethyl ester], the EC50 is 7.8 µM in test [4], 9.3 µM in test [5] and 6.2 µM in test [6].
